Reference: US5994356A, “Carboxylic acid derivatives, medicaments comprising these compounds, their use and processes for their production” (priority 1996, dated 1999)
Counter-ions that a name gives are not always drawn.

What was measured:
[1] = Plasma levels in Rhesus monkeys after oral administration; type: in vivo; settings: 1 mg/kg
human platelets = experiment: Inhibition of the binding of ^3 H-BIBU 52 to human platelets (fibrinogen binding test); settings: human platelets in plasma; ^3 H-BIBU 52 5 nM; room temperature, 20 minutes
Experimental: 1. Inhibition of the binding of ^3 H-BIBU 52 to Human Platelets
The free and bound ligand is separated by centrifugation and determined quantitatively by scintillation counting. From the measurements, the inhibition of ^3 H-BIBU 52 binding by the test substance is determined.
To do this, donor blood is taken from an antecubital vein and anticoagulated with trisodium citrate (final concentration 13 mM). The blood is centrifuged at 170×g for 10 minutes and the supernatant platelet-rich plasma (PRP) is removed. The residual blood is rapidly centrifuged once more to obtain plasma. The PRP is diluted 1:10 with autologous plasma. 750 μl are incubated with […] of physiological saline solution, 100 μl of test substance solution, 50 μl of ^14 C-sucrose (3700 Bq) and 50 μl of ^3 H-BIBU 52 (final concentration: 5 nM) at room temperature for 20 minutes. To measure the non-specific binding, instead of the test substance, 100 μl of BIBU 52 (final concentration: 30 μM) is employed. The samples are centrifuged at 10,000×g for 20 seconds and the supernatant is removed. 100 μl thereof are measured to determine the free ligand. The pellet is dissolved in 500 μl of 0.2N NaOH, and 450 μl are mixed with 2 ml of scintillator and 25 μl of 5N HCl and measured. The residual plasma still remaining in the pellet is determined from the ^14 C content, the bound ligand from the ^3 H measurement.

platelet aggregation = experiment: Antithrombotic action: collagen-induced platelet aggregation in platelet-rich plasma (Born and Cross); type: cell-based; settings: Homo sapiens, 10 min, platelet-rich plasma of healthy subjects, incubated 10 minutes at 37° C., 50% change in optical density, read-out: Inhibition of platelet aggregation EC50
Experimental: 2. Antithrombotic Action Methodology Platelet aggregation is measured according to the method of Born and Cross (J. Physiol. 170, 397 (1964)) in platelet-rich plasma of healthy subjects. To inhibit clotting, the blood is treated with sodium citrate 3.14% in the volume ratio 1:10. Collagen-induced Aggregation The course of the decrease in the optical density of the platelet suspension is measured photometrically and recorded after addition of the aggregation-inducing substance. From the angle of inclination of the density curve, the aggregation rate is deduced. The point on the curve at which the greatest light transmission is present serves for the calculation of the optical density. The amount of collagen is chosen to be as low as possible, but of course such that an irreversibly running reaction curve results. Commercially available collagen from Hormonchemie, Munich is used. Before the addition of collagen, the plasma is incubated at 37° C. with the substance for 10 minutes in each case. From the measured values obtained, an EC50 which relates to a 50% change in the optical density in the sense of an inhibition of aggregation is determined graphically.

In the case of COC(=O)COc1ccc(N2CCN(CCC3CCNCC3)CC2)cc1.Cl.Cl [Example 2, 1-(4-Methoxycarbonylmethyloxyphenyl)-4-[2-(piperidin-4-yl)ethyl]piperazine dihydrochloride], the “period of high plasma levels” value [1] is reported as “more than 8 hours”.
CN(CC1CCNCC1)[C@H]1CC[C@H](c2ccc(OCC(=O)O)cc2)CC1 [1(22), trans-1-(4-Carboxymethyloxyphenyl)-4-[(piperidin-4-yl)-N-methylmethylamino]cyclohexane dihydrochloride] gave an IC50 (human platelets) of 260 nM and an EC50 (platelet aggregation) of 370 nM.
O=C(O)COc1ccc(N2CCN(CCC3CCNCC3)CC2=O)cc1 [1(1), 1-(4-Carboxymethyloxyphenyl)-4-[2-(piperidin-4-yl)ethyl]piperazin-2-onedihydrochloride] gave an IC50 (human platelets) of 360 nM and an EC50 (platelet aggregation) of 370 nM.
Molecule O=C(O)COc1ccc(N2CCN(CCC3CCNCC3)CC2)cc1OCC(=O)O [1(3), 1-[3,4-Di(carboxymethyloxy)phenyl]-4-[2-(piperidin-4-yl)ethyl]piperazine d ihydrochloride] has an IC50 (human platelets) of 47 nM and an EC50 (platelet aggregation) of 110 nM.
In the case of Cl.Cl.O=C(COc1ccc(N2CCN(CCC3CCNCC3)CC2)cc1OCC(=O)OC1CCCCC1)OC1CCCCC1 [9(2), 1-[3,4-Di(cyclohexyloxycarbonylmethyloxy)phenyl]4-[2-(piperidin-4-yl)ethyl]piperazine dihydrochloride], the “period of high plasma levels” value [1] is reported as “more than 8 hours”.
For O=C(O)COc1ccc(N2CCN(CCC3CCNCC3)CC2)cc1 [Example 1, 1-(4-Carboxymethyloxyphenyl)-4-[2-(piperidin-4-yl)ethyl]piperazine dihydrochloride], the IC50 (human platelets) was 150 nM and the EC50 (platelet aggregation) was 120 nM.
O=C(O)CO[C@H]1CC[C@H](N2CCN(CCC3CCNCC3)CC2=O)CC1 [7(1), 1-(trans-4-Carboxymethyloxycyclohexyl)-4-[2-(piperidin-4-yl)ethyl]piperazin-2-one] showed an IC50 (human platelets) of 200 nM and an EC50 (platelet aggregation) of 250 nM.
With CC1CN(CCC2CCNCC2)CCN1c1ccc(OCC(=O)O)cc1 (stereo not drawn) [1(7), 1-(4-Carboxymethyloxyphenyl)-2-methyl-4-[2-(piperidin-4-yl)ethyl]piperazine dihydrochloride] the IC50 (human platelets) was 260 nM and the EC50 (platelet aggregation) was 240 nM.
Work on O=C(O)C(Oc1ccc(N2CCN(CCC3CCNCC3)CC2)cc1)c1ccccc1 (stereo not drawn) [7(6), 1-[4-(1-Carboxybenzyloxy)phenyl]-4-[2-(piperidin-4-yl)ethyl]piperazine dihydrochloride] yielded an IC50 (human platelets) of 150 nM.
In the case of COC(=O)COc1ccc(N2CCN(CCC3CCNCC3)CC2C)cc1.Cl.Cl (stereo not drawn) [2(4), 1-(4-Methoxycarbonylmethyloxyphenyl)-2-methyl-4-[2-(piperidin-4-yl)ethyl]piperazine dihydrochloride], the “period of high plasma levels” value [1] is reported as “more than 8 hours”.
With CCOC(=O)COc1ccc(N2CCN(CCC3CCNCC3)CC2)cc1OCC(=O)OCC.Cl.Cl [Example 9, 1-[3,4-Di(ethoxycarbonylmethyloxy)phenyl]-4-[2-(piperidin-4-yl)ethyl]piperazine dihydrochloride] the “period of high plasma levels” value [1] was “more than 8 hours”.
For CC(C)COC(=O)COc1ccc(N2CCN(CCC3CCNCC3)CC2)cc1OCC(=O)OCC(C)C [9(1), 1-[3,4-Di(isobutyloxycarbonylmethyloxy)phenyl]-4-[2-piperidin-4-yl)ethyl]piperazine dihydrochloride], the “period of high plasma levels” value [1] was “more than 8 hours”.
